Data taken from PubChem BioAssay AID1963832 (Molecular Pharmacology Branch, DTP, NCI, 2024).

Test system: 885724-159-R-J1-PDC complex spheroid viability
Test: Anticancer human tumor 885724-159-R-J1-PDC patient-derived pancreatic adenocarcinoma cell line growth inhibition [POLQ]
Conditions: for IC50: curve of first compound; for viability, T/C: stronger effect = lower value
Procedure, shortened: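 PDC + HUVEC + MSC complex spheroids; POLQ inhibitors ± partner drugs; top conc. at/near clinical Cmax, else 10 microM (SN-38 1 microM), half-log dilutions; 37 degrees C, 5% CO2.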

[1] = second compound 0.0316 µM, first compound 0.0316 µM
[2] = second compound 0.0316 µM, first compound 0.1 µM
[3] = second compound 0.0316 µM, first compound 0.316 µM
[4] = second compound 0.0316 µM, first compound 1 µM
[5] = second compound 0.0316 µM, first compound 3.16 µM
[6] = second compound 0.0316 µM, first compound 10 µM
[7] = second compound 0.1 µM, first compound 0.0316 µM
[8] = second compound 0.1 µM, first compound 0.1 µM
[9] = second compound 0.1 µM, first compound 0.316 µM
[10] = second compound 0.1 µM, first compound 1 µM
[11] = second compound 0.1 µM, first compound 3.16 µM
[12] = second compound 0.1 µM, first compound 10 µM
[13] = second compound 0.316 µM, first compound 0.0316 µM
[14] = second compound 0.316 µM, first compound 0.1 µM
[15] = second compound 0.316 µM, first compound 0.316 µM
[16] = second compound 0.316 µM, first compound 1 µM
[17] = second compound 0.316 µM, first compound 3.16 µM
[18] = second compound 0.316 µM, first compound 10 µM
[19] = second compound 1 µM, first compound 0.0316 µM
[20] = second compound 1 µM, first compound 0.1 µM
[21] = second compound 1 µM, first compound 0.316 µM
[22] = second compound 1 µM, first compound 1 µM
[23] = second compound 1 µM, first compound 3.16 µM
[24] = second compound 1 µM, first compound 10 µM
[25] = second compound 3.16 µM, first compound 0.0316 µM
[26] = second compound 3.16 µM, first compound 0.1 µM
[27] = second compound 3.16 µM, first compound 0.316 µM
[28] = second compound 3.16 µM, first compound 1 µM
[29] = second compound 3.16 µM, first compound 3.16 µM
[30] = second compound 3.16 µM, first compound 10 µM
[31] = second compound 10 µM, first compound 0.0316 µM
[32] = second compound 10 µM, first compound 0.1 µM
[33] = second compound 10 µM, first compound 0.316 µM
[34] = second compound 10 µM, first compound 1 µM
[35] = second compound 10 µM, first compound 3.16 µM
[36] = second compound 10 µM, first compound 10 µM
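Further: spheroids exposed to compounds for 7 days.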

`CCc1cc2c(N3CCc4c(cc(Cn5ccnc5)cc4-c4cn(C)nc4C(F)(F)F)C3=O)ccnc2c(OC)n1` + COC1C(OC(N)=O)C(O)C(Oc2ccc3c(O)c(NC(=O)c4ccc(O)c(CC=C(C)C)c4)c(=O)oc3c2C)OC1(C)C gave an IC50 (second compound 0.0316 µM) of over 10 µM, an IC50 (second compound 0.1 µM) of over 10 µM and an IC50 (second compound 0.316 µM) of over 10 µM. The IC50 (second compound 1 µM) was over 10 µM, the IC50 (second compound 3.16 µM) was over 10 µM and the IC50 (second compound 10 µM) was over 10 µM. For the same molecule, the viability, T/C [1] was 90.9%, the viability, T/C [2] was 76.4% and the viability, T/C [3] was 75.5%. It also gave a viability, T/C [4] of 75%, a viability, T/C [5] of 75% and a viability, T/C [6] of 70.3%. It also gave a viability, T/C [7] of 86.8%, a viability, T/C [8] of 82.1% and a viability, T/C [9] of 80.1%. It also gave a viability, T/C [10] of 82.2%, a viability, T/C [11] of 76.3% and a viability, T/C [12] of 68.2%. For the same molecule, the viability, T/C [13] was 89.3%, the viability, T/C [14] was 86.1% and the viability, T/C [15] was 72.3%. For the same molecule, the viability, T/C [16] was 70.9%, the viability, T/C [17] was 75.5% and the viability, T/C [18] was 64.6%. It also gave a viability, T/C [19] of 85.2%, a viability, T/C [20] of 86% and a viability, T/C [21] of 79.5%. The viability, T/C [22] was 83.1%, the viability, T/C [23] was 77% and the viability, T/C [24] was 59.1%. For the same molecule, the viability, T/C [25] was 87.5%, the viability, T/C [26] was 80.3% and the viability, T/C [27] was 79.8%. It also gave a viability, T/C [28] of 72.5%, a viability, T/C [29] of 75.4% and a viability, T/C [30] of 69.5%. It also gave a viability, T/C [31] of 80.6%, a viability, T/C [32] of 76.8% and a viability, T/C [33] of 76.6%. For the same molecule, the viability, T/C [34] was 80.4%, the viability, T/C [35] was 79.5% and the viability, T/C [36] was 64.1%.

Work on `COc1cc2cc(C(=O)CCC(=O)O)sc2cc1OC` + COC1C(OC(N)=O)C(O)C(Oc2ccc3c(O)c(NC(=O)c4ccc(O)c(CC=C(C)C)c4)c(=O)oc3c2C)OC1(C)C yielded an IC50 (second compound 0.0316 µM) of over 10 µM, an IC50 (second compound 0.1 µM) of over 10 µM and an IC50 (second compound 0.316 µM) of over 10 µM. The IC50 (second compound 1 µM) was over 10 µM, the IC50 (second compound 3.16 µM) was over 10 µM and the IC50 (second compound 10 µM) was over 10 µM. The viability, T/C [1] was 96.4%, the viability, T/C [2] was 97.6% and the viability, T/C [3] was 100%. The viability, T/C [4] was 93.6%, the viability, T/C [5] was 96.8% and the viability, T/C [6] was 86.2%. For the same molecule, the viability, T/C [7] was 100%, the viability, T/C [8] was 96.3% and the viability, T/C [9] was 102%. It also gave a viability, T/C [10] of 109%, a viability, T/C [11] of 109% and a viability, T/C [12] of 86.6%. The viability, T/C [13] was 101%, the viability, T/C [14] was 101% and the viability, T/C [15] was 97.2%. For the same molecule, the viability, T/C [16] was 103%, the viability, T/C [17] was 113% and the viability, T/C [18] was 81%. For the same molecule, the viability, T/C [19] was 109%, the viability, T/C [20] was 92.5% and the viability, T/C [21] was 95.6%. The viability, T/C [22] was 96%, the viability, T/C [23] was 104% and the viability, T/C [24] was 76.2%. The viability, T/C [25] was 100%, the viability, T/C [26] was 96.6% and the viability, T/C [27] was 95.9%. For the same molecule, the viability, T/C [28] was 101%, the viability, T/C [29] was 113% and the viability, T/C [30] was 79.8%. It also gave a viability, T/C [31] of 96.8%, a viability, T/C [32] of 105% and a viability, T/C [33] of 111%. The viability, T/C [34] was 93.4%, the viability, T/C [35] was 87.5% and the viability, T/C [36] was 83.4%.

For `COc1ccc([C@@H](O)c2cc(-c3ncnc4cc(N5CCOCC5)ccc34)c(F)cc2Cl)nn1` + COC1C(OC(N)=O)C(O)C(Oc2ccc3c(O)c(NC(=O)c4ccc(O)c(CC=C(C)C)c4)c(=O)oc3c2C)OC1(C)C, the IC50 (second compound 0.0316 µM) was 3.45 µM, the IC50 (second compound 0.1 µM) was 4.09 µM and the IC50 (second compound 0.316 µM) was 4.05 µM. The IC50 (second compound 1 µM) was 4.77 µM, the IC50 (second compound 3.16 µM) was 3.15 µM and the IC50 (second compound 10 µM) was 3.75 µM. For the same molecule, the viability, T/C [1] was 95.4%, the viability, T/C [2] was 85.4% and the viability, T/C [3] was 76.3%. The viability, T/C [4] was 65.5%, the viability, T/C [5] was 53.4% and the viability, T/C [6] was 33.4%. The viability, T/C [7] was 104%, the viability, T/C [8] was 104% and the viability, T/C [9] was 81.9%. It also gave a viability, T/C [10] of 71.2%, a viability, T/C [11] of 56.7% and a viability, T/C [12] of 33.8%. For the same molecule, the viability, T/C [13] was 100%, the viability, T/C [14] was 93.3% and the viability, T/C [15] was 86.6%. It also gave a viability, T/C [16] of 73.7%, a viability, T/C [17] of 54.2% and a viability, T/C [18] of 32.8%. The viability, T/C [19] was 94.2%, the viability, T/C [20] was 81.4% and the viability, T/C [21] was 90%. It also gave a viability, T/C [22] of 66.8%, a viability, T/C [23] of 61.9% and a viability, T/C [24] of 34.3%. It also gave a viability, T/C [25] of 89.9%, a viability, T/C [26] of 81.3% and a viability, T/C [27] of 97.2%. The viability, T/C [28] was 68.4%, the viability, T/C [29] was 52.5% and the viability, T/C [30] was 31.8%. It also gave a viability, T/C [31] of 108%, a viability, T/C [32] of 86.9% and a viability, T/C [33] of 87.5%. It also gave a viability, T/C [34] of 69.1%, a viability, T/C [35] of 55.5% and a viability, T/C [36] of 31.5%.

For `O=C(Nc1ccc(O)c(NS(=O)(=O)c2ccc(F)cc2)c1)c1ccc(-c2ccccc2)cc1` + COC1C(OC(N)=O)C(O)C(Oc2ccc3c(O)c(NC(=O)c4ccc(O)c(CC=C(C)C)c4)c(=O)oc3c2C)OC1(C)C, the IC50 (second compound 0.0316 µM) was over 10 µM, the IC50 (second compound 0.1 µM) was over 10 µM and the IC50 (second compound 0.316 µM) was over 10 µM. For the same molecule, the IC50 (second compound 1 µM) was over 10 µM, the IC50 (second compound 3.16 µM) was over 10 µM and the IC50 (second compound 10 µM) was over 10 µM. It also gave a viability, T/C [1] of 90.9%, a viability, T/C [2] of 91.9% and a viability, T/C [3] of 92.7%. For the same molecule, the viability, T/C [4] was 102%, the viability, T/C [5] was 98.6% and the viability, T/C [6] was 72.9%. For the same molecule, the viability, T/C [7] was 104%, the viability, T/C [8] was 96.7% and the viability, T/C [9] was 98.1%. For the same molecule, the viability, T/C [10] was 104%, the viability, T/C [11] was 109% and the viability, T/C [12] was 72.7%. It also gave a viability, T/C [13] of 105%, a viability, T/C [14] of 95.6% and a viability, T/C [15] of 90%. For the same molecule, the viability, T/C [16] was 107%, the viability, T/C [17] was 106% and the viability, T/C [18] was 87.3%. It also gave a viability, T/C [19] of 107%, a viability, T/C [20] of 96% and a viability, T/C [21] of 95%. It also gave a viability, T/C [22] of 100%, a viability, T/C [23] of 102% and a viability, T/C [24] of 71.4%. For the same molecule, the viability, T/C [25] was 96.6%, the viability, T/C [26] was 92% and the viability, T/C [27] was 95.1%. The viability, T/C [28] was 94.1%, the viability, T/C [29] was 101% and the viability, T/C [30] was 84.1%. For the same molecule, the viability, T/C [31] was 94.8%, the viability, T/C [32] was 97.3% and the viability, T/C [33] was 94.6%. For the same molecule, the viability, T/C [34] was 97.1%, the viability, T/C [35] was 108% and the viability, T/C [36] was 75.8%.
